Data on one compound can be found in patent publication US12048680B2, “Use of Gemfibrozil and derivative thereof for treatment and/or prevention of neurodegenerative disease” (Kunming Institute of Zoology Chinese Academy of Sciences, priority 2018, dated 2024).

One assay relates to APP/PS1ΔE9 mice. Kind of assay: Water maze test of spatial learning and memory. Type of assay: in vivo, mouse. Here is the method:
Gemfibrozil was administered to 8-month-old APP/PS1ΔE9 mice (male and female halves). Gemfibrozil was first dissolved in dimethyl sulfoxide (DMSO) at a concentration of 50 mg/mL, and then diluted to a final concentration of 50 μg/mL with mouse drinking water to obtain a drug solution. The mice in the administration group were allowed to freely drink the drug solution containing gemfibrozil, in which the final concentration of DMSO in the solution was 0.1%; and the mice in the control group were allowed to drink water containing 0.1% DMSO freely. All drinking devices contained with Gemfibrozil were wrapped in aluminum foil to prevent decomposition by exposure. During dosing, the drug solution was replaced every 2 days. Mice were measured daily for water consumption. After 2 months of dosing, all mice were subjected to behavioural experiments. Mice were placed in the laboratory to be behaviourally tested one hour prior to the start of daily behavioural studies, and all behavioural experiments were completed between 9 and 17 o'clock. All experiments involving animals were approved by Animal Ethics Committee of the Kunming Institute of Zoology, CAS. According to the application, a water maze experiment was adopted to evaluate the learning and memory capacity of AD mice after Gemfibrozil was administered for 2 months. The parameters of the used water maze were as follows: a circular pool having a diameter of 120 cm, a height of 50 cm, and a water depth of about 30 cm; and a cylindrical plastic lifesaving platform having a diameter of 10 cm, a height of 29 cm, and submerged 1 cm below the water surface. The water temperature was kept at 20+1° C. During the test, in order to prevent the mice from seeing the platform, white plastic foam was added to the water to spread on the water surface evenly until the lifesaving platform could not be seen, and the water was replaced every two days. The circular pool was divided into four quadrants, and the lifesaving platform was placed in the center of the third quadrant. A camera was arranged right above the water maze and used for recording the movement track of the mice. Mice were placed from the rearing room into a room for the water maze experiment for 1 hour before the start of each day of the experiment. The mice were trained for 7 consecutive days. The starting position was randomly changed among the four quadrants, the mice were allowed to explore freely for 1 minute, and the time required for the mice to find a lifesaving platform (also known as latency) was measured. If the mouse was able to find the platform within 1 minute, it was allowed to sit on the platform for 20 seconds, so that it can remember the location of the lifesaving platform based on surrounding markers. […] Each mouse was trained at 90-minute intervals each day and randomly placed in the water maze in three different quadrants each day to look for the lifesaving platform. After 4 hours after the last training on the 7th day, the lifesaving platform of the water maze was removed. The mice were put into water, and the time, the distance and the speed of the mice around the lifesaving platform within 1 minute and the number of shuttles at the position of the lifesaving platform were measured, thereby evaluating the short-term memory capacity of the mice. After 72 hours after the last training on the 7th day, the lifesaving platform of the water maze was removed again. The mice were put into water, and the time, the distance and the speed of the mice around the lifesaving platform within 1 minute and the number of shuttles at the position of the lifesaving platform were measured, thereby evaluating the long-term memory capacity of the mice. During the experiment, the surrounding environment of the water maze should be kept consistent to avoid the influence of environmental factors. The behavior of the mice was followed and videotaped throughout the experiment using SMART 3.0 software (Panlab HARVARD, MA, USA). […]

For the next assay, the system named is Aβ plaques. Kind of assay: Immunohistochemical staining of Aβ plaques with Aβ (4G8) antibodies. Type of assay: in vivo. The conditions noted are these: brain tissue of APP/PS1ΔE9 mouse, vs control group (A-C in FIG. 5).
The next assay has as its system soluble Aβ. Kind of assay: Western blot of soluble Aβ in mouse brain tissue. Type of assay: in vivo. How it is done:
Gemfibrozil was administered to 8-month-old APP/PS1ΔE9 mice (male and female halves). Gemfibrozil was first dissolved in dimethyl sulfoxide (DMSO) at a concentration of 50 mg/mL, and then diluted to a final concentration of 50 μg/mL with mouse drinking water to obtain a drug solution. The mice in the administration group were allowed to freely drink the drug solution containing gemfibrozil, in which the final concentration of DMSO in the solution was 0.1%; and the mice in the control group were allowed to drink water containing 0.1% DMSO freely. All drinking devices contained with Gemfibrozil were wrapped in aluminum foil to prevent decomposition by exposure. During dosing, the drug solution was replaced every 2 days. Mice were measured daily for water consumption. After 2 months of dosing, all mice were subjected to behavioural experiments. Mice were placed in the laboratory to be behaviourally tested one hour prior to the start of daily behavioural studies, and all behavioural experiments were completed between 9 and 17 o'clock. All experiments involving animals were approved by Animal Ethics Committee of the Kunming Institute of Zoology, CAS.
4. Expression of Related Proteins by Western Blot
The specific steps were as follows:
1) Extracting protein: the protein was extracted from the mouse brain tissue using western and an IP lysate from Beyotime Biotechnology.
2) Determining protein concentration: HM and U251-APP cells and mouse brain proteins were measured using a BCA protein quantification kit, and the extracted proteins were used for subsequent detection.
3) Pretreatment before loading: each sample was loaded at 20 μg depending on the protein concentration. The protein denaturant anhydrous mercaptoethanol was first added to denature the proteins at 95° C. for 6 minutes. After denaturation, the sample was placed on ice and stood for 5 minutes.
4) Loading and performing ectrophoresis: the denatured protein samples were loaded to the corresponding wells to start electrophoresis.
5) Membrane transfer treatment: according to the ratio of the reagent required by 1 L of a membrane transfer solution (10× membrane transfer solution: anhydrous methanol:water=1:2:7), a certain amount of the membrane transfer solution was prepared, the sponge and filter paper were immersed in the membrane transfer solution, and the PVDF membrane was previously immersed in anhydrous methanol for 30 seconds to be activated. A membrane transfer plate was manufactured according to the sequence of sponge-filter paper-glue-membrane-filter paper-sponge (the protein was negatively charged, and was transferred to a PVDF membrane towards the positive electrode). […]
(In western blotting, separated proteins are transferred to a membrane and probed.)

Where [1] appears, read: hippocampus and cortex of APP/PS1ΔE9 mice, Western blot (A-B in FIG. 4).

SMILES strings stand for the structures.

On to `Cc1ccc(C)c(OCCCC(C)(C)C(=O)O)c1` [Gemfibrozil, 2,2-dimethyl-5-(2,5-dimethylphenoxy) pentanoic acid], for which the learning ability result with APP/PS1ΔE9 mice (8-month-old APP/PS1ΔE9 mice, 50 μg/mL in drinking water for 2 months, 7 days of training, vs control group) is reported as “significantly improved”. Also, the short-term memory capacity result in the assay with APP/PS1ΔE9 mice (4 hours after the last training, platform removed, vs control group) is “significantly improved”. Besides, in the assay with APP/PS1ΔE9 mice (72 hours after the last training, platform removed), the long-term memory capacity entry is recorded as “significantly improved”. The “escape time (latency) required to reach the lifesaving platform” value in the assay with APP/PS1ΔE9 mice (APP/PS1ΔE9 mice, 50 μg/mL in drinking water for 2 months, training phase, vs control group (A in FIG. 1)) is on record as “less than the control group”. In addition, in the assay with APP/PS1ΔE9 mice (APP/PS1ΔE9 mice, 50 μg/mL in drinking water for 2 months, training phase, vs control group (B in FIG. 1)), the “range required to reach the lifesaving platform” value is reported as “less than the control group”. The “lingering time in the target quadrant” value is on record as “increase” in the assay on APP/PS1ΔE9 mice (long-term memory, 72 hours after the last training (G in FIG. 1)) and “increase” in the assay on APP/PS1ΔE9 mice (short-term memory, 4 hours after the last training (D in FIG. 1)). The “distance in the target quadrant” value in the assay with APP/PS1ΔE9 mice (long-term memory, 72 hours after the last training (H in FIG. 1)) is “increase”; with APP/PS1ΔE9 mice (short-term memory, 4 hours after the last training (E in FIG. 1)) it was “increase”. Moreover, the “number of shuttles at the position of the lifesaving platform” value in the assay on APP/PS1ΔE9 mice (long-term memory, 72 hours after the last training (I in FIG. 1)) is reported as “increases”; with APP/PS1ΔE9 mice (short-term memory, 4 hours after the last training (F in FIG. 1)), “increases”. For the same compound, the “deposition of Aβ plaques labeled with Aβ (4G8) antibodies” value with Aβ plaques is given as “significantly reduced”. Also, the “ratio of Aβ42 and Aβ40 (soluble)” value with soluble Aβ (between groups, Western blot (A-B in FIG. 4)) is listed as “did not change significantly”. The “level of Aβ40 (soluble)” value in the assay with soluble Aβ (setting [1]) is listed as “decreased significantly”. Besides, the “level of Aβ42 (soluble)” value in the assay with soluble Aβ (setting [1]) is listed as “decreased significantly”. In the assay on soluble Aβ (hippocampus and cortex of APP/PS1ΔE9 mice, vs control group (A-B in FIG. 4)), the “soluble Aβ” value is given as “significantly reduced”.
